Experimental data as given in patent US11759455B2, “Substituted 1H-imidazo[4,5-b]pyridin-2(3H)-ones and their use as GLUN2B receptor modulators” (JANSSEN PHARMACEUTICA NV, priority 2016, dated 2023).
Like-named read-outs stand apart in the source and are kept apart here.

Target: T1, human GluN1/GluN2B NMDA receptors (Homo sapiens, UniProt Q13224)
T1 construct: expressed in transfected cells
Assay: Cell-based calcium flux (FLIPR) assay on cloned human NR1/NR2B ion channels expressed in mammalian cells (standard and HTS buffer variants);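 also: stable Tet-On inducible cell line, Ca2+ influx triggered by glutamate at about EC40 plus 10 µM glycine, fluorescent dye read-out over 5 min, normalized to control wells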
Settings: human GluN1/GluN2B cells

[1] = HTS assay buffer (1.5 mM MgCl2 dye loading; 150 mM NaCl, 3 mM KCl assay buffer), read-out: NR2B IC50 (μM) HTS assay
[2] = standard assay buffer (0.5 mM MgCl2 dye loading; 137 mM NaCl, 4 mM KCl assay buffer), read-out: NR2B IC50 (μM) standard assay

T1 sequence (Q13224 27-1484, other chains not shown): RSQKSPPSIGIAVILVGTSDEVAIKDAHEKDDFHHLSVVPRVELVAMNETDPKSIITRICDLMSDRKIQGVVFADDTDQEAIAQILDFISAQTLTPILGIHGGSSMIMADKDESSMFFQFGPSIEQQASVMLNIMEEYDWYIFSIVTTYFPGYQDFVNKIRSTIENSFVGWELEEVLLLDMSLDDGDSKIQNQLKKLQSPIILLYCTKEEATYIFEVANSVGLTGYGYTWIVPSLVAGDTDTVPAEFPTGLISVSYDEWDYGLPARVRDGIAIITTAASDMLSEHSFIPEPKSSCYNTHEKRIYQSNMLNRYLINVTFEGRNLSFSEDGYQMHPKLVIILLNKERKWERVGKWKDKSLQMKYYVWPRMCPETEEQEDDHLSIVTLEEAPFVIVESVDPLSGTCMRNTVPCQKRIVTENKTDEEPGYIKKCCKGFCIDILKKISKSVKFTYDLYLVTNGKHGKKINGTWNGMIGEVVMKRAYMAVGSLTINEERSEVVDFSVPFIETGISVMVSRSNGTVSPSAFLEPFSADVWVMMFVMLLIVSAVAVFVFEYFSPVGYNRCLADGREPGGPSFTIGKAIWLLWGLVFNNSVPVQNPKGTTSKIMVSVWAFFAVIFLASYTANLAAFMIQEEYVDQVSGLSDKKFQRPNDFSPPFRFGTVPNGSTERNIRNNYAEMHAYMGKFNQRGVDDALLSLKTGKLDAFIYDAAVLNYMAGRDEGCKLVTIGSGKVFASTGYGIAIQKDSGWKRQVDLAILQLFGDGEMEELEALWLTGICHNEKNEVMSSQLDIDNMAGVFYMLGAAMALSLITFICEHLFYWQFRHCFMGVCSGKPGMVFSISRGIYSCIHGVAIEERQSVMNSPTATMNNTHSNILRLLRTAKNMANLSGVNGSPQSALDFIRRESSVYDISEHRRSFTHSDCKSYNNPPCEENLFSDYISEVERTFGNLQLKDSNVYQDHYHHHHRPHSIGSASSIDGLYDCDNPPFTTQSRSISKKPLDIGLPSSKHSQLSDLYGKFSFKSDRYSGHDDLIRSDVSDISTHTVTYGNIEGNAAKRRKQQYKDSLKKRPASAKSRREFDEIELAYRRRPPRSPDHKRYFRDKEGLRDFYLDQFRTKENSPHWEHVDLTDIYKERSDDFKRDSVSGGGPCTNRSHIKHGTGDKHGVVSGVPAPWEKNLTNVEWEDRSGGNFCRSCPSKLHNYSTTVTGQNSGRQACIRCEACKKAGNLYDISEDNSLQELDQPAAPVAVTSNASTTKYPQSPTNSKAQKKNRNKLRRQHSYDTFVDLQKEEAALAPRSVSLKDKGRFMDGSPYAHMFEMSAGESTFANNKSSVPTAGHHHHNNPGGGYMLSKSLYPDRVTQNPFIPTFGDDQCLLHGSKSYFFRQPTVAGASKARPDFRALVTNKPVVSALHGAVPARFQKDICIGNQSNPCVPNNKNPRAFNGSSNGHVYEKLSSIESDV

IC50 [1] [µM]	IC50 [2] [µM]	Structure (SMILES)
1.01		COc1ccc(-c2cnc3[nH]c(=O)n(CC(=O)NC4CC4)c3c2)cc1 [Example 38, N-Cyclopropyl-2-[6-(4-methoxyphenyl)-2-oxo-3H-imidazo[4,5-b]pyridin-1-yl]acetamide]
1.03		Cc1cc(C)cc(-c2cnc3[nH]c(=O)n(CC(=O)NC4CC4)c3c2)c1 [Example 39, N-Cyclopropyl-2-[6-(3,5-dimethylphenyl)-2-oxo-3H-imidazo[4,5-b]pyridin-1-yl]acetamide]
1.82		Cc1cc(F)ccc1-c1cnc2[nH]c(=O)n(CC(=O)N(C)C3CC3)c2c1 [Example 40, N-Cyclopropyl-2-[6-(4-fluoro-2-methyl-phenyl)-2-oxo-3H-imidazo[4,5-b]pyridin-1-yl]-N-methyl-acetamide]
8.72		COc1ccc(-c2cnc3[nH]c(=O)n(CC(=O)N(C)C4CC4)c3c2)cc1 [Example 41, N-Cyclopropyl-2-[6-(4-methoxyphenyl)-2-oxo-3H-imidazo[4,5-b]pyridin-1-yl]-N-methyl-acetamide]
2.71		Cc1cc(F)ccc1-c1cnc2c(c1)n(CC(=O)NC1CC1)c(=O)n2C [Example 42, N-Cyclopropyl-2-[6-(4-fluoro-2-methyl-phenyl)-3-methyl-2-oxo-imidazo[4,5-b]pyridin-1-yl]acetamide]
	0.038	Cc1cc(-c2cnc3c(c2)n(Cc2cccnc2)c(=O)n3C)ccc1F [Example 45, 6-(4-Fluoro-3-methyl-phenyl)-3-methyl-1-(3-pyridylmethyl)imidazo[4,5-b]pyridin-2-one]
	0.6	Cc1cc(-c2cnc3c(c2)n(Cc2ccncc2)c(=O)n3C)ccc1F [Example 46, 6-(4-Fluoro-3-methyl-phenyl)-3-methyl-1-(4-pyridylmethyl)imidazo[4,5-b]pyridin-2-one]
	0.113	Cc1cc(-c2cnc3c(c2)n(Cc2cnccn2)c(=O)n3C)ccc1F [Example 47, 6-(4-Fluoro-3-methyl-phenyl)-3-methyl-1-(pyrazin-2-ylmethyl)imidazo[4,5-b]pyridin-2-one]
	0.072	Cc1cc(-c2cnc3c(c2)n(Cc2cncnc2)c(=O)n3C)ccc1F [Example 48, 6-(4-Fluoro-3-methyl-phenyl)-3-methyl-1-(pyrimidin-5-ylmethyl)imidazo[4,5-b]pyridin-2-one]
	0.486	Cc1cc(-c2cnc3c(c2)n(Cc2ncccn2)c(=O)n3C)ccc1F [Example 49, 6-(4-Fluoro-3-methyl-phenyl)-3-methyl-1-(pyrimidin-2-ylmethyl)imidazo[4,5-b]pyridin-2-one]
	0.009	Cc1cc(-c2cnc3c(c2)n(Cc2cccnn2)c(=O)n3C)ccc1F [Example 50, 6-(4-Fluoro-3-methyl-phenyl)-3-methyl-1-(pyridazin-3-ylmethyl)imidazo[4,5-b]pyridin-2-one]
	22.6	Cn1c(=O)n(Cc2cccnc2)c2cc(-c3cccc(F)c3)cnc21 [Example 51, 6-(3-Fluorophenyl)-3-methyl-1-(3-pyridylmethyl)imidazo[4,5-b]pyridin-2-one]
	3.33	Cn1c(=O)n(Cc2ccncc2)c2cc(-c3cccc(F)c3)cnc21 [Example 52, 6-(3-Fluorophenyl)-3-methyl-1-(4-pyridylmethyl)imidazo[4,5-1D]pyridin-2-one]
	1.4	Cn1c(=O)n(Cc2ccccn2)c2cc(-c3cccc(F)c3)cnc21 [Example 53, 6-(3-Fluorophenyl)-3-methyl-1-(2-pyridylmethyl)imidazo[4,5-b]pyridin-2-one]
	0.61	Cn1c(=O)n(Cc2cncnc2)c2cc(-c3cccc(F)c3)cnc21 [Example 54, 6-(3-Fluorophenyl)-3-methyl-1-(pyrimidin-5-ylmethyl)imidazo[4,5-b]pyridin-2-one]
	3.03	Cn1c(=O)n(Cc2cnccn2)c2cc(-c3cccc(F)c3)cnc21 [Example 55, 6-(3-Fluorophenyl)-3-methyl-1-(pyrazin-2-ylmethyl)imidazo[4,5-b]pyridin-2-one]
	8.71	Cn1c(=O)n(Cc2ncccn2)c2cc(-c3cccc(F)c3)cnc21 [Example 56, 6-(3-Fluorophenyl)-3-methyl-1-(pyrimidin-2-ylmethyl)imidazo[4,5-b]pyridin-2-one]
